Where “and” joins values, the source holds several entries; their conditions need not be identical. Equal values may be shown once. Inconclusive results and toxic doses are left out. How the source made its calls: active means survival T/C of 150% or more; inactive means T/C below 125% in these data.
Test system: P388 leukemia ip, CD2F1 mice, survival T/C
Assay: NCI In Vivo Anticancer Drug Screen. Data for tumor model P388 Leukemia (intraperitoneal) in CD2F1 (CDF1) mice
Conditions: endpoint: median survival time, higher = longer survival
Summary of the method: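 Mice carrying the transplanted tumor received test compound or vehicle. Survival was recorded in each group, and the value is the treated-group measurement divided by that of the vehicle-treated control group.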

[1] = dose: 100.0 mg/kg/injection, schedule: Q04DX003 (ip), vehicle: Klucel (hydroxypropylcellulose) (HPC)
[2] = dose: 50.0 mg/kg/injection, schedule: Q04DX002 (ip), vehicle: saline with Tween-80
[3] = dose: 100.0 mg/kg/injection, schedule: Q04DX002 (ip), vehicle: saline with Tween-80
[4] = dose: 50.0 mg/kg/injection, schedule: Q01DX005 (ip), vehicle: Klucel (hydroxypropylcellulose) (HPC)
[5] = dose: 100.0 mg/kg/injection, schedule: Q01DX005 (ip), vehicle: Klucel (hydroxypropylcellulose) (HPC)
[6] = dose: 200.0 mg/kg/injection, schedule: Q01DX005 (ip), vehicle: Klucel (hydroxypropylcellulose) (HPC)
[7] = dose: 200.0 mg/kg/injection, schedule: Q04DX002 (ip), vehicle: saline with Tween-80
[8] = dose: 25.0 mg/kg/injection, schedule: Q01DX009 (ip), vehicle: saline with Tween-80
[9] = dose: 50.0 mg/kg/injection, schedule: Q01DX009 (ip), vehicle: saline with Tween-80
[10] = dose: 100.0 mg/kg/injection, schedule: Q01DX009 (ip), vehicle: saline with Tween-80
[11] = dose: 60.0 mg/kg/injection, schedule: Q01DX005 (ip), vehicle: saline with Tween-80
[12] = dose: 120.0 mg/kg/injection, schedule: Q01DX005 (ip), vehicle: saline with Tween-80
[13] = dose: 240.0 mg/kg/injection, schedule: Q01DX005 (ip), vehicle: saline with Tween-80

Measured: T/C

O=C1CC(c2ccc(Cl)cc2)C(c2ccc(Cl)cc2)C1=O (stereo unspecified)
inactive: dose: 6.25 mg/kg/injection, schedule: Q01DX001 (ip), vehicle: Klucel (hydroxypropylcellulose) (HPC) 107 % of control | dose: 12.5 mg/kg/injection, schedule: Q01DX001 (ip), vehicle: Klucel (hydroxypropylcellulose) (HPC) 112 % of control | dose: 25.0 mg/kg/injection, schedule: Q01DX001 (ip), vehicle: Klucel (hydroxypropylcellulose) (HPC) 106 % of control and 86 % of control | dose: 100.0 mg/kg/injection, schedule: Q01DX001 (ip), vehicle: Klucel (hydroxypropylcellulose) (HPC) 99 % of control

COC1C=C(Cl)C(=O)C(C)O1 (stereo unspecified)
inactive: dose: 25.0 mg/kg/injection, schedule: Q04DX003 (ip), vehicle: Klucel (hydroxypropylcellulose) (HPC) 100 % of control | dose: 50.0 mg/kg/injection, schedule: Q04DX003 (ip), vehicle: Klucel (hydroxypropylcellulose) (HPC) 106 % of control | [1] 100 % of control

COc1ccc(C(=O)CC2=NC3NN(c4ccccc4)C(=O)C3=C2CC(=O)c2ccc(OC)cc2)cc1 (stereo unspecified)
inactive: dose: 60.0 mg/kg/injection, schedule: Q01DX005 (ip), vehicle: suspension in saline 101 % of control | dose: 120.0 mg/kg/injection, schedule: Q01DX005 (ip), vehicle: suspension in saline 108 % of control | dose: 240.0 mg/kg/injection, schedule: Q01DX005 (ip), vehicle: suspension in saline 112 % of control

COC1=CC(C)(C)C(=O)S1
inactive: dose: 25.0 mg/kg/injection, schedule: Q04DX002 (ip), vehicle: saline with Tween-80 100 % of control | [2] 96 % of control | [3] 100 % of control

CC(C)(O)c1cc(=O)n(-c2ccccc2)[nH]1
inactive: [4] 102 % of control | [5] 101 % of control | [6] 105 % of control

COc1ccc(-c2c3c(c(O)c4cc5c(cc24)OCO5)COC3=O)cc1OC
inactive: dose: 12.5 mg/kg/injection, schedule: Q01DX009 (ip), vehicle: Klucel (hydroxypropylcellulose) (HPC) 95 % of control | dose: 25.0 mg/kg/injection, schedule: Q01DX009 (ip), vehicle: Klucel (hydroxypropylcellulose) (HPC) 104 % of control | dose: 50.0 mg/kg/injection, schedule: Q01DX009 (ip), vehicle: Klucel (hydroxypropylcellulose) (HPC) 99 % of control | dose: 100.0 mg/kg/injection, schedule: Q01DX009 (ip), vehicle: Klucel (hydroxypropylcellulose) (HPC) 105 % of control

Cc1ccccc1C1OC2=C(Nc3ccc([N+](=O)[O-])cc3N2)C1=O (stereo unspecified)
inactive: dose: 60.0 mg/kg/injection, schedule: Q01DX005 (ip), vehicle: Klucel (hydroxypropylcellulose) (HPC) 88 % of control | dose: 120.0 mg/kg/injection, schedule: Q01DX005 (ip), vehicle: Klucel (hydroxypropylcellulose) (HPC) 90 % of control | dose: 240.0 mg/kg/injection, schedule: Q01DX005 (ip), vehicle: Klucel (hydroxypropylcellulose) (HPC) 101 % of control

CC1=C(C(=O)Nc2ccccc2)C(c2ccc(C)cc2)C(C(=O)Nc2ccccc2)=C(C)N1
inactive: [3] 107 % of control | [7] 106 % of control | dose: 400.0 mg/kg/injection, schedule: Q04DX002 (ip), vehicle: saline with Tween-80 101 % of control

Cc1ccc(O)c(C(c2cc(C)ccc2O)c2cc(C)ccc2O)c1
inactive: [8] 107 % of control | [9] 105 % of control and 113 % of control | [10] 101 % of control

CCOP1(=O)OC(c2ccccc2)C(C)N1C (stereo unspecified)
inactive: [4] 100 % of control | [5] 104 % of control | [6] 107 % of control

COC(=O)[C@H]1O[C@H]1c1cccc[n+]1[O-]
inactive: dose: 25.0 mg/kg/injection, schedule: Q01DX005 (ip), vehicle: water 100 % of control | dose: 50.0 mg/kg/injection, schedule: Q01DX005 (ip), vehicle: water 97 % of control | dose: 100.0 mg/kg/injection, schedule: Q01DX005 (ip), vehicle: water 100 % of control | dose: 200.0 mg/kg/injection, schedule: Q01DX005 (ip), vehicle: water 102 % of control

COc1ccc2c(c1)c(COC(C)=O)c(COC(C)=O)c[n+]2[O-]
inactive: [4] 98 % of control | [5] 97 % of control | [6] 94 % of control

O=C(O)C(C1CC(Cl)=NO1)N1C(=O)c2ccccc2C1=O (stereo unspecified)
inactive: dose: 6.2 mg/kg/injection, schedule: Q04DX003 (ip), vehicle: other 101 % of control | dose: 12.5 mg/kg/injection, schedule: Q04DX003 (ip), vehicle: other 100 % of control | dose: 25.0 mg/kg/injection, schedule: Q04DX003 (ip), vehicle: other 105 % of control | dose: 50.0 mg/kg/injection, schedule: Q04DX003 (ip), vehicle: other 99 % of control | dose: 100.0 mg/kg/injection, schedule: Q04DX003 (ip), vehicle: other 101 % of control | dose: 200.0 mg/kg/injection, schedule: Q04DX003 (ip), vehicle: other 99 % of control

CC(=O)c1c(O)c(C)c(O)c2c1OC1=CC(=O)c3c(C)noc3C12C (stereo unspecified)
inactive: dose: 12.5 mg/kg/injection, schedule: Q01DX009 (ip), vehicle: gum acacia 102 % of control | dose: 25.0 mg/kg/injection, schedule: Q01DX009 (ip), vehicle: gum acacia 118 % of control | dose: 50.0 mg/kg/injection, schedule: Q01DX009 (ip), vehicle: gum acacia 101 % of control and 112 % of control and 113 % of control | dose: 100.0 mg/kg/injection, schedule: Q01DX009 (ip), vehicle: gum acacia 114 % of control and 118 % of control and 120 % of control | dose: 200.0 mg/kg/injection, schedule: Q01DX009 (ip), vehicle: gum acacia 104 % of control and 105 % of control

CCCOc1ccc(-c2nc(-c3ccc(N=Cc4ccc(N(CCOS(C)(=O)=O)CCOS(C)(=O)=O)cc4C)cc3)cs2)cc1
active: dose: 3.12 mg/kg/injection, schedule: Q01DX009 (ip), vehicle: saline with Tween-80 160 % of control | dose: 6.25 mg/kg/injection, schedule: Q01DX009 (ip), vehicle: saline with Tween-80 180 % of control | dose: 12.5 mg/kg/injection, schedule: Q01DX009 (ip), vehicle: saline with Tween-80 156 % of control and 166 % of control and 197 % of control | [8] 164 % of control
inactive: [9] 110 % of control and 118 % of control

CCOC(=O)N[C@H]1CCc2cc(O)c(OC)c(OC)c2-c2ccc(SC)c(=O)cc21
inactive: dose: 1.25 mg/kg/injection, schedule: Q01DX009 (ip), vehicle: Klucel (hydroxypropylcellulose) (HPC) 120 % of control | dose: 10.0 mg/kg/injection, schedule: Q01DX009 (ip), vehicle: Klucel (hydroxypropylcellulose) (HPC) 109 % of control

O=S(=O)(O)O.[O]=[V]
inactive: dose: 6.25 mg/kg/injection, schedule: Q01DX009 (ip), vehicle: saline 90 % of control | dose: 12.5 mg/kg/injection, schedule: Q01DX009 (ip), vehicle: saline 86 % of control | dose: 12.5 mg/kg/injection, schedule: Q04DX003 (ip), vehicle: saline 100 % of control | dose: 25.0 mg/kg/injection, schedule: Q01DX009 (ip), vehicle: saline 90 % of control | dose: 25.0 mg/kg/injection, schedule: Q04DX003 (ip), vehicle: saline 100 % of control

CCC1NN1C(C)C (stereo unspecified)
inactive: [2] 100 % of control | [3] 95 % of control | [7] 107 % of control

N#CC1=Cc2ccccc2OC1
inactive: [1] 108 % of control | dose: 200.0 mg/kg/injection, schedule: Q04DX003 (ip), vehicle: Klucel (hydroxypropylcellulose) (HPC) 108 % of control | dose: 400.0 mg/kg/injection, schedule: Q04DX003 (ip), vehicle: Klucel (hydroxypropylcellulose) (HPC) 105 % of control

COC1=CC2CC(C#N)C2(OC)C=C1 (stereo unspecified)
inactive: [11] 97 % of control | [12] 99 % of control | [13] 98 % of control

COC(=O)C1C(O)C(C)C(O)C(C)(O)/C=C/C=C(C)C(=O)Nc2c(C)c(OC(C)=O)c3c(c2O)C(=O)C(C)=C2OCOC(=C23)C(C)=CC(C)(O)C(O)C(C)C1OC(C)=O (stereo unspecified)
inactive: [11] 95 % of control | [12] 105 % of control | [13] 108 % of control

O=C(O)CN(CC(=O)O)Cc1cc2c(cc1O)Oc1cc(O)c(CN(CC(=O)O)CC(=O)O)cc1C21OC(=O)c2ccccc21
inactive: [9] 105 % of control | [10] 101 % of control | dose: 200.0 mg/kg/injection, schedule: Q01DX009 (ip), vehicle: saline with Tween-80 97 % of control

Cc1ccc(S(=O)(=O)OCCN(CCOS(=O)(=O)c2ccc(C)cc2)c2ccc(N=O)cc2)cc1
active: dose: 25.0 mg/kg/injection, schedule: Q04DX003 (ip), vehicle: saline with Tween-80 163 % of control | dose: 50.0 mg/kg/injection, schedule: Q04DX003 (ip), vehicle: saline with Tween-80 168 % of control | dose: 100.0 mg/kg/injection, schedule: Q04DX003 (ip), vehicle: saline with Tween-80 177 % of control
inactive: dose: 100.0 mg/kg/injection, schedule: Q04DX003 (ip), vehicle: saline sonified 122 % of control

Reference: PubChem BioAssay AID330 (DTP/NCI, 2004)
